“Also recorded” adds a separate entry of the source.
Legend:
[1] = Tigecycline steady-state serum pharmacokinetics, alone and with warfarin; assay type: in vivo, human (healthy subjects)
Procedure: Blood tubes for tigecycline analysis are placed immediately on ice until a clot forms.
Thus, the peak concentration (Cmax) and the time to peak concentration (tmax) are taken directly from the observed data. […] Systemic clearance (Cl) is calculated as dose/AUC, and it is presented both corrected and uncorrected for body weight.

[2] = Safety in healthy subjects of the drug interaction study; assay type: in vivo, human (healthy subjects); details: single 25-mg oral warfarin alone, multiple 50-mg IV tigecycline, and combined
Text: (§1) This is an open-label, nonrandomized, inpatient/outpatient, 2-period, 2-treatment study performed with healthy subjects at a single investigational site.

[3] = for plasma concentrations following tigecycline coadministration: versus warfarin 25 mg alone, FIG. 1, FIG. 2; for increase of exposure (AUC): warfarin given with a therapeutic regimen of tigecycline
Procedure: as §1
The tubes are centrifuged within 15 minutes of collection at approximately 1000 g for about 10 minutes. The separated plasma is then transferred to a watertight, labeled polypropylene tube and stored frozen in an upright position at −70° C. or colder until shipped.
The apparent terminal-phase disposition rate constant (λz) is estimated by a log-linear regression of the last 2 to 5 observed serum concentrations that are determined to be in the log-linear elimination phase by visual inspection. […] The area under the concentration-time curve (AUCT) to the last observable concentration (CT) at time T is calculated by using the log-trapezoidal rule for decreasing concentrations and the linear-trapezoidal rule for increasing concentrations, and the total AUC is estimated by AUC=AUCT+CT/λz. The oral-dose clearance (Cl/F) is calculated as dose/AUC, and the apparent terminal-phase volume of distribution (Vz/F) is estimated as Vz/F═[Cl/F]/λz.

[4] = tested on: international normalized ratio (INR); details: in vivo; cited from earlier work
[5] = combination versus warfarin alone
[6] = single 25-mg oral dose of warfarin, Mean ± SD

With `CN(C)c1cc(NC(=O)CNC(C)(C)C)c(O)c2c1C[C@H]1C[C@H]3[C@H](N(C)C)C(O)=C(C(N)=O)C(=O)[C@@]3(O)C(O)=C1C2=O` [Tigecycline, (4S,4aS,5aR,12aS)-9-[2-(tert-butylamino)acetamido]-4,7-bis(dimethylamino)-1,4,4a,5,5a,6,11,12a-octahydro-3,10,12,12a-tetrahydroxy-1,11-dioxo-2-naphthacenecarboxamide] the “mean steady-state systemic clearance and exposure (Cmax, C12h, AUC) versus monotherapy mean values” ([1]; following coadministration of warfarin) was ≤ 10%, the Tmax ([1]; human, intravenous, 50 mg, tigecycline in serum, steady state, Mean ± SD) was 30 min and the AUC(0-t) ([1]; human, intravenous, 50 mg, tigecycline in serum, steady state, Mean ± SD, read-out: AUC0-12 h) was 2100 ± 514 ng·h/mL. The concentration at 12 h ([1]; human, intravenous, 50 mg, tigecycline in serum, steady state, Mean ± SD, read-out: C12 h) was 109 ± 28 ng/mL, the Cmax ([1]; human, tigecycline in serum, steady state, 50 mg IV every 12 h, Mean ± SD) was 886 ± 202 ng/mL and the systemic clearance ([1]; tigecycline intravenous clearance, steady state, Mean ± SD) was 5.17 ± 1.2 mL/min/kg. For the same molecule, the safety-related concerns [2] was “No safety-related concerns”, the “effect on oral-dose clearance of R-warfarin and S-warfarin” value ([3]; coadministration of the therapeutic regimen of tigecycline) was “significantly decreased” and the “mean INR AUC0-[…] following the combination treatment” value (prothrombin time (INR); [5]) was “unchanged”. For the same molecule, the “mean INRmax lower following the combination treatment” value (prothrombin time (INR); [5]) was 10% and the “effect on warfarin's anticoagulant profile (measured by INR)” value (prothrombin time (INR); therapeutic regimen of tigecycline with warfarin) was “does not significantly alter; also recorded: did not significantly alter”.

For `CC(=O)C[C@@H](c1ccccc1)c1c(O)c2ccccc2oc1=O` [S-warfarin], the “plasma concentrations following tigecycline coadministration” value [3] was “higher” and the “increase of exposure (AUC)” value [3] was 29%.

For `CN(C)c1ccc(O)c2c1C[C@H]1C[C@H]3[C@H](N(C)C)C(O)=C(C(N)=O)C(=O)[C@@]3(O)C(O)=C1C2=O` [minocycline], the compatibility with warfarin [4] is listed as “demonstrated incompatibility”.

With `CC(=O)CC(c1ccccc1)c1c(O)c2ccccc2oc1=O` (racemic) [Warfarin, 3-(α-acetonylbenzyl)-4-hydroxycoumarin] the safety-related concerns [2] was “No safety-related concerns”, the “R-warfarin AUC” value ([3]; human, in vivo, po) was 73000 ± 18000 ng·h/mL and the “R-warfarin Cl/F” value ([3]; human, in vivo, po) was 0.0717 ± 0.013 mL/min/kg. For the same molecule, the “S-warfarin AUC” value ([3]; human, in vivo, po) was 47000 ± 18000 ng·h/mL, the “S-warfarin Cl/F” value ([3]; human, in vivo, po) was 0.117 ± 0.0317 mL/min/kg and the “INR AUC0-[…]” value (prothrombin time (INR); [6]) was 216 ± 14 h. The INRmax (prothrombin time (INR); [6]) was 1.8 ± 0.3 and the “tmax (time to maximum INR value)” value (prothrombin time (INR); [6]) was 1800 ± 540 min.

For `CC(=O)C[C@H](c1ccccc1)c1c(O)c2ccccc2oc1=O` [R-warfarin], the “plasma concentrations following tigecycline coadministration” value [3] was “higher” and the “increase of exposure (AUC)” value [3] was 68%.
